Source: US3965109A, “Certain aryl amino pyridines” (priority 1971, dated 1976)

Experiments:
Type in all cases: in vivo
[1] = system: Aedes aegypti (mosquito adults); assay: Pest toxicity test; conditions: 0.01% by weight; plywood; 1 day
[2] = system: Pieris brassicae (cabbage white caterpillars); assay: Pest toxicity test; conditions: 0.1% by weight, 2 days
[3] = system: Plutella maculipennis (diamond back moth larvae); assay: Pest toxicity test
[4] = system: Tetranychus telarius (red spider mites, eggs); assay: Pest toxicity test; conditions: 0.1% by weight; French bean; 3 days
[5] = system: Aedes aegypti (mosquito larvae); assay: Pest toxicity test; conditions: for Mortality grading (kill): 0.01% by weight, water, 1 day
[6] = system: Tetranychus telarius (red spider mites, adults); assay: Pest toxicity test; conditions: 0.1% by weight; French bean; 3 days
Aphis fabae = assay: Pest toxicity test; conditions: 0.1% by weight; broad bean; 2 days
[7] = system: Phaedon cochleariae (mustard beetles); assay: Pest toxicity test
[8] = system: Musca domestica (houseflies); assay: Pest toxicity test, contact test; conditions: 0.1% by weight; milk/sugar; 2 days; flies sprayed directly
Megoura viceae = assay: Pest toxicity test; conditions: 0.1% by weight; broad bean; 2 days
Uncinula necator (vine) = assay: Fungicidal test against foliar disease D (foliage spray plus soil drench); conditions: 100 ppm spray and drench; 10 days
[9] = system: Puccinia recondita (wheat); assay: Fungicidal test against foliar disease A (foliage spray plus soil drench); conditions: 100 ppm spray and drench; 10 days
[10] = system: Plasmopara viticola (vine); assay: Fungicidal test against foliar disease C (foliage spray plus soil drench); conditions: 100 ppm spray and drench; 10 days
[11] = system: Phytophthora infestans (tomato); conditions: 100 ppm spray and drench; 3 days
[12] = system: Piricularia oryzae (rice); conditions: 100 ppm spray and drench; 7 days
Wheat = assay: Herbicidal test, pre- and post-emergence
Kale = assay: Further herbicidal test, various rates; conditions: 5 lb/acre; scale 0 to 5 (complete kill)
Carrot = assay: Further herbicidal test, various rates; conditions: 5 lb/acre; scale 0 to 5 (complete kill)
Sugar beet = assay: Further herbicidal test, various rates; conditions: 5 lb/acre; scale 0 to 5 (complete kill)
Rice = assay: Further herbicidal test, various rates; conditions: 5 lb/acre; scale 0 to 5 (complete kill)
Lettuce = assay: Herbicidal test, pre- and post-emergence
Maize = assay: Herbicidal test, pre- and post-emergence
Oat = assay: Further herbicidal test, various rates; conditions: 5 lb/acre; scale 0 to 5 (complete kill)
Pea = assay: Further herbicidal test, various rates; conditions: 5 lb/acre; scale 0 to 5 (complete kill)
Tomato = assay: Herbicidal test, pre- and post-emergence
Onion = assay: Further herbicidal test, various rates; conditions: 5 lb/acre; scale 0 to 5 (complete kill)
Barley = assay: Further herbicidal test, various rates; conditions: 5 lb/acre; scale 0 to 5 (complete kill)
[13] = 0.1% by weight, mustard/paper, 2 days
[14] = 10 lb/acre (11.2 kg/ha), scale 0 (no effect) to 3 (complete kill)
[15] = 10 kg/ha, scale 0 to 3 (complete kill)

## Fc1nc(F)c(Cl)c(Nc2ccccc2)c1Cl [Compound 2, 4-Anilino-3,5-dichloro-2,6-difluoropyridine]
[1]
  Mortality grading (kill): 0 (O represents less than 30% kill)
[2]
  Mortality grading (kill): 0 (O represents less than 30% kill)
[3]; [13]
  Mortality grading (kill): 0 (O represents less than 30% kill)
[4]
  Mortality grading (kill): 0 (O represents less than 30% kill)
[5]
  Mortality grading (kill): 0 (O represents less than 30% kill)
[6]
  Mortality grading (kill): 3 (3 represents over 90% kill)
Aphis fabae
  Mortality grading (kill): 0 (O represents less than 30% kill)
[7]; [13]
  Mortality grading (kill): 0 (O represents less than 30% kill)
[8]
  Mortality grading (kill), contact test: 0 (O represents less than 30% kill)
Megoura viceae
  Mortality grading (kill): 0 (O represents less than 30% kill)

## Fc1nc(F)c(Cl)c(Nc2c(Cl)cc(Cl)cc2Cl)c1Cl [Compound 7, 3,5-Dichloro-2,6-difluoro-4(2,4,6-trichloroanilino)pyridine]
Uncinula necator (vine)
  Amount of disease grading, disease D: 0 (61 to 100)
[9]
  Amount of disease grading, disease A: 2 (6 to 25)
[10]
  Amount of disease grading, disease C: 0 (61 to 100)
[11]
  Amount of disease grading, disease B: 0 (61 to 100)
[5]; in vivo
  abnormal growth effects in larva of mosquitos: abnormal growth effects
[12]
  Amount of disease grading, disease E: 0 (61 to 100)

## Fc1nc(F)c(Cl)c(Nc2c(F)c(F)c(F)c(F)c2F)c1Cl [Compound 10, 3,5-Dichloro-2,6-difluoro-4(pentafluoroanilino)pyridine]
[1]
  Mortality grading (kill): 2 (2 represents 60 - 90% kill)
Wheat; [14]
  Damage to plants, post-emergence: 1
  Damage to plants, pre-emergence: 0
[2]
  Mortality grading (kill): 0 (O represents less than 30% kill)
Kale
  Damage to plants, post-emergence: 3
  Damage to plants, pre-emergence: 1
[3]; in vivo
  Mortality grading (kill): 0 (key: O represents less than 30% kill; 1 represents 30 - 49% kill; 2 represents 60 - 90% kill; 3 represents over 90% kill; C indicates a chemosterilant effect.; A indicates an antifeeding effect.)
Carrot
  Damage to plants, post-emergence: 2
  Damage to plants, pre-emergence: 1
[5]
  Mortality grading (kill): 2 (2 represents 60 - 90% kill)
[6]
  Mortality grading (kill): 3 (3 represents over 90% kill)
Sugar beet
  Damage to plants, post-emergence: 3
  Damage to plants, pre-emergence: 0
Rice
  Damage to plants, post-emergence: 0
Lettuce; [14]
  Damage to plants, post-emergence: 3
  Damage to plants, pre-emergence: 2
Maize; [14]
  Damage to plants, post-emergence: 0
  Damage to plants, pre-emergence: 0
Aphis fabae
  Mortality grading (kill): 0 (O represents less than 30% kill)
Oat
  Damage to plants, post-emergence: 0
  Damage to plants, pre-emergence: 0
Pea
  Damage to plants, post-emergence: 0
  Damage to plants, pre-emergence: 3
[7]; in vivo
  Mortality grading (kill): 0 (key: O represents less than 30% kill; 1 represents 30 - 49% kill; 2 represents 60 - 90% kill; 3 represents over 90% kill; C indicates a chemosterilant effect.; A indicates an antifeeding effect.)
Tomato; [14]
  Damage to plants, post-emergence: 3
  Damage to plants, pre-emergence: 1
Onion
  Damage to plants, post-emergence: 2
  Damage to plants, pre-emergence: 0
[8]
  Mortality grading (kill), contact test: 0 (O represents less than 30% kill)
Megoura viceae
  Mortality grading (kill): 0 (O represents less than 30% kill)
Barley
  Damage to plants, post-emergence: 0
  Damage to plants, pre-emergence: 3

## Fc1nc(F)c(Cl)c(Nc2cccc(C(F)(F)F)c2)c1Cl [Compound 17, 3,5-Dichloro-2,6-difluoro-4(3-trifluoromethylanilino)pyridine]
Uncinula necator (vine)
  Amount of disease grading, disease D: 0 (61 to 100)
[9]
  Amount of disease grading, disease A: 0 (61 to 100)
[10]
  Amount of disease grading, disease C: 3 (0 to 5)
[11]
  Amount of disease grading, disease B: 1 (26 to 60)
[12]
  Amount of disease grading, disease E: 0 (61 to 100)

## CN(C)S(=O)(=O)c1cc(Cl)c(Nc2c(Cl)c(F)nc(F)c2Cl)cc1Cl [Compound 31, 3,5-Dichlor-2,6-difluoro-4(2,5-dichlor-4-N,N-dimethylsulphamoylanilino)pyridine]
Uncinula necator (vine)
  Amount of disease grading, disease D (Table 4): 3 (0 to 5)
[9]
  Amount of disease grading, disease A (Table 4): 2 (6 to 25)
[10]
  Amount of disease grading, disease C (Table 4): 3 (0 to 5)
[11]
  Amount of disease grading, disease B (Table 4): 0 (61 to 100)
[12]
  Amount of disease grading, disease E (Table 4): 0 (61 to 100)

## O=[N+]([O-])c1ccc(Nc2c(Cl)c(F)nc(F)c2Cl)cc1C(F)(F)F [Compound 36, 3,5-Dichloro-2,6-difluoro-4(4-nitro-3-trifluoromethylanilino) pyridine]
Uncinula necator (vine)
  Amount of disease grading, disease D (Table 4): 0 (61 to 100)
[9]
  Amount of disease grading, disease A (Table 4): 2 (6 to 25)
[10]
  Amount of disease grading, disease C (Table 4): 3 (0 to 5)
[11]
  Amount of disease grading, disease B (Table 4): 2 (6 to 25)
[12]
  Amount of disease grading, disease E (Table 4): 1 (26 to 60)

## O=[N+]([O-])c1ccc(Nc2c(F)c(F)nc(F)c2Cl)c([N+](=O)[O-])c1 [Compound 38, 3-Chloro-4(2,4-dinitroanilino)-2,5,6-trifluoropyridine]
[1]
  Mortality grading (kill): 0 (O represents less than 30% kill)
Wheat; [15]
  Damage to plants, post-emergence: 0
  Damage to plants, pre-emergence: 2
[2]
  Mortality grading (kill): 3 (3 represents over 90% kill)
Uncinula necator (vine)
  Amount of disease grading, disease D (Table 4): 3 (0 to 5)
[9]
  Amount of disease grading, disease A (Table 4): 1 (26 to 60)
[10]
  Amount of disease grading, disease C (Table 4): 3 (0 to 5)
[3]; in vivo
  Mortality grading (kill): 0 (key: O represents less than 30% kill; 1 represents 30 - 49% kill; 2 represents 60 - 90% kill; 3 represents over 90% kill; C indicates a chemosterilant effect.; A indicates an antifeeding effect.)
[4]
  Mortality grading (kill): 3 (3 represents over 90% kill)
[5]
  Mortality grading (kill): 3 (3 represents over 90% kill)
[6]
  Mortality grading (kill): 3 (3 represents over 90% kill)
[12]
  Amount of disease grading, disease E (Table 4): 2 (6 to 25)
Lettuce; [15]
  Damage to plants, post-emergence: 3
  Damage to plants, pre-emergence: 3
Maize; [15]
  Damage to plants, post-emergence: 0
  Damage to plants, pre-emergence: 0
Aphis fabae
  Mortality grading (kill): 0 (O represents less than 30% kill)
[7]; in vivo
  Mortality grading (kill): 0 (key: O represents less than 30% kill; 1 represents 30 - 49% kill; 2 represents 60 - 90% kill; 3 represents over 90% kill; C indicates a chemosterilant effect.; A indicates an antifeeding effect.)
Tomato; [15]
  Damage to plants, post-emergence: 3
  Damage to plants, pre-emergence: 3
[8]
  Mortality grading (kill), contact test: 0 (O represents less than 30% kill)
Megoura viceae
  Mortality grading (kill): 0 (O represents less than 30% kill)

## O=[N+]([O-])c1cc([N+](=O)[O-])c(Nc2c(F)c(F)nc(F)c2F)cc1F [Compound 39, 4(2,4-Dinitro-5-fluoranilino)tetrafluoropyridine]
Uncinula necator (vine)
  Amount of disease grading, disease D (Table 4): 0 (61 to 100)
[9]
  Amount of disease grading, disease A (Table 4): 1 (26 to 60)
[10]
  Amount of disease grading, disease C (Table 4): 3 (0 to 5)
[11]
  Amount of disease grading, disease B (Table 4): 2 (6 to 25)
[12]
  Amount of disease grading, disease E (Table 4): 1 (26 to 60)

## CNC(=O)N(c1c(F)c(F)c(C#N)c(F)c1F)c1c(Cl)c(F)nc(OC)c1Cl [Compound 46]
[1]
  Mortality grading (kill): 0 (O represents less than 30% kill)
[2]
  Mortality grading (kill): 0 (O represents less than 30% kill)
[3]; [13]
  Mortality grading (kill): 0 (O represents less than 30% kill)
[4]
  Mortality grading (kill): 0 (O represents less than 30% kill)
[5]
  Mortality grading (kill): 3 (3 represents over 90% kill)
[6]
  Mortality grading (kill): 2 (2 represents 60 - 90% kill)
Aphis fabae
  Mortality grading (kill): 0 (O represents less than 30% kill)
[7]; [13]
  Mortality grading (kill): 0 (O represents less than 30% kill)
[8]
  Mortality grading (kill), contact test: 0 (O represents less than 30% kill)
Megoura viceae
  Mortality grading (kill): 0 (O represents less than 30% kill)
